Measurements reported in the supplement of paper PMC13380429.

Columns and labels:
Settings in all cases: 72 h
U2OS [1] = test: relative viability EC50 (midpoint between 100% and the lowest measured viability); higher = less toxic
Calu-3 [2] = test: as above
Vero E6 [3] = test: as above
Caco-2 [4] = test: as above
U2OS [5] = test: cell viability relative to DMSO; higher = less toxic
HepG2 [6] = test: as above
Calu-3 [7] = test: as above
Vero E6 [8] = test: as above
Caco-2 [9] = test: as above
U2OS [10] = test: drug sensitivity score (DSS) for viability; higher = more toxic; extreme values may be limits of the assay
HepG2 [11] = test: as above
Calu-3 [12] = test: as above
Vero E6 [13] = test: as above
Caco-2 [14] = test: as above
HepG2 [15] = test: relative viability EC50 (midpoint between 100% and the lowest measured viability); higher = less toxic

SMILES | relative viability EC50 (U2OS [1]) [µM] | relative viability EC50 (Calu-3 [2]) [µM] | relative viability EC50 (Vero E6 [3]) [µM] | relative viability EC50 (Caco-2 [4]) [µM] | cell viability (U2OS [5]; 1 nM) [%] | cell viability (U2OS [5]; 10 nM) [%] | cell viability (U2OS [5]; 100 nM) [%] | cell viability (U2OS [5]; 1000 nM) [%] | cell viability (U2OS [5]; 10000 nM) [%] | cell viability (HepG2 [6]; 1 nM) [%] | cell viability (HepG2 [6]; 10 nM) [%] | cell viability (HepG2 [6]; 100 nM) [%] | cell viability (HepG2 [6]; 1000 nM) [%] | cell viability (HepG2 [6]; 10000 nM) [%] | cell viability (Calu-3 [7]; 1 nM) [%] | cell viability (Calu-3 [7]; 10 nM) [%] | cell viability (Calu-3 [7]; 100 nM) [%] | cell viability (Calu-3 [7]; 1000 nM) [%] | cell viability (Calu-3 [7]; 10000 nM) [%] | cell viability (Vero E6 [8]; 1 nM) [%] | cell viability (Vero E6 [8]; 10 nM) [%] | cell viability (Vero E6 [8]; 100 nM) [%] | cell viability (Vero E6 [8]; 1000 nM) [%] | cell viability (Vero E6 [8]; 10000 nM) [%] | cell viability (Caco-2 [9]; 1 nM) [%] | cell viability (Caco-2 [9]; 10 nM) [%] | cell viability (Caco-2 [9]; 100 nM) [%] | cell viability (Caco-2 [9]; 1000 nM) [%] | cell viability (Caco-2 [9]; 10000 nM) [%] | drug sensitivity score (U2OS [10]) | drug sensitivity score (HepG2 [11]) | drug sensitivity score (Calu-3 [12]) | drug sensitivity score (Vero E6 [13]) | drug sensitivity score (Caco-2 [14]) | relative viability EC50 (HepG2 [15]) [µM]
Cc1c(C(=O)Nc2ccc(N3C[C@@H](C)O[C@@H](C)C3)nc2)cccc1-c1ccc(OC(F)(F)F)cc1 [sonidegib] | > 10 | > 10 | > 10 | > 10 | 99.5 | 94.1 | 102 | 96.5 | 87.3 | 104 | 96.8 | 99.7 | 98.9 | 71.3 | 109 | 98.4 | 92.7 | 97.9 | 97.2 | 105 | 109 | 102 | 104 | 84 | 102 | 98.8 | 95.7 | 98 | 81.4 | 0.3 | 1.4 | 0 | 0.2 | 0.7 | 
COc1ccc(CCN)cc1OC [homoveratrylamine] | > 10 | > 10 | > 10 |  | 94.6 | 96.1 | 97.6 | 97.3 | 101 | 110 | 103 | 98.2 | 108 | 115 | 100 | 85.6 | 113 | 98.2 | 95.7 | 108 | 106 | 94.9 | 97.5 | 96.4 | 89.4 | 77.6 | 110 | 79.4 | 73 | 0 | 0 | 0 | 0 | 2.9 | > 10
Cc1[nH]c2ccc(O)cc2c1CCN [2-methyl-5-hydroxytryptamine] | > 10 | > 10 | > 10 | > 10 | 101 | 101 | 97.3 | 106 | 101 |  |  |  |  |  | 109 | 109 | 102 | 101 | 99.3 | 95 | 96.5 | 98.4 | 96.6 | 94.9 | 104 | 105 | 98.3 | 102 | 102 | 0 |  | 0 | 0 | 0 | 
COc1ccccc1Oc1c(NS(=O)(=O)c2ccc(C(C)(C)C)cc2)nc(-c2ncccn2)nc1OCCO [bosentan] | > 10 | > 10 | > 10 | > 10 | 98 | 102 | 98 | 99.9 | 91 |  |  |  |  |  | 102 | 94.2 | 99.1 | 114 | 102 | 95.1 | 100 | 94.3 | 93.9 | 85.3 | 106 | 98.4 | 103 | 96.6 | 81.1 | 0 |  | 0 | 0.2 | 0.9 | 
O=C1c2ccccc2C(=O)c2ccccc21 [anthraquinone] | > 10 | > 10 | > 10 |  | 105 | 99.7 | 103 | 99.2 | 105 | 95.2 | 106 | 96.2 | 94.2 | 92.6 | 94.9 | 97.4 | 95.8 | 88 | 98.2 | 105 | 106 | 99.8 | 104 | 101 |  |  |  |  |  | 0 | 0 | 0 | 0 |  | > 10
Cc1nnc2ccc(-c3cccc(C(F)(F)F)c3)nn12 | > 10 | > 10 |  | > 10 | 99.1 | 98.8 | 94.3 | 99.4 | 94.5 | 107 | 102 | 107 | 90.4 | 108 | 99.5 | 111 | 95 | 101 | 91.2 |  |  |  |  |  | 92.5 | 97.3 | 107 | 97.6 | 87.9 | 0 | 0 | 0 |  | 0.2 | > 10
N#CCC(=O)c1ccccc1 | > 10 | > 10 |  | > 10 | 100 | 99.9 | 100 | 98.3 | 104 | 94.9 | 103 | 101 | 106 | 96.2 | 103 | 108 | 96.3 | 100 | 94.7 |  |  |  |  |  | 106 | 105 | 89.2 | 98.2 | 102 | 0 | 0 | 0 |  | 0 | > 10
CC(=O)N[C@H]1[C@H]([C@H](O)[C@H](O)CO)OC(O)(C(=O)O)C[C@@H]1O (mixture of isomers) [aceneuramic-acid] |  | > 10 | > 10 | > 10 |  |  |  |  |  | 94.6 | 90.1 | 99.9 | 67.9 | 86.1 | 113 | 99.6 | 99.2 | 97.1 | 90.4 | 102 | 97.4 | 101 | 93.7 | 98 | 106 | 99 | 85.8 | 99.3 | 93.6 |  | 2.5 | 0 | 0 | 0 | 
COc1cc([C@@H]2c3cc4c(cc3[C@@H](O[C@@H]3O[C@@H]5CO[C@@H](c6cccs6)O[C@H]5[C@H](O)[C@H]3O)[C@H]3COC(=O)[C@H]23)OCO4)cc(OC)c1O [teniposide] | 1.37 | 0.129 |  | 1.16 | 99.3 | 94.4 | 92.7 | 66.5 | 4.2 | 89.6 | 86.1 | 47.3 | 27.8 | 9.9 | 91.1 | 92.6 | 75.8 | 47.2 | 40.6 | 106 | 92.8 | 100 | 75 | 64 | 108 | 95.7 | 100 | 71 | 29 | 9.4 | 21.5 | 12.6 | 4.6 | 7.8 | 0.0761
N[C@@H]1CCCCN(c2c(F)cc3c(=O)c(C(=O)O)cn(C4CC4)c3c2Cl)C1 [besifloxacin] | > 10 | > 10 |  | > 10 | 98.2 | 99.5 | 95.6 | 102 | 98.9 | 102 | 92.2 | 108 | 113 | 97.8 | 100 | 97.3 | 100 | 103 | 107 |  |  |  |  |  | 97.1 | 98.4 | 100 | 104 | 93.5 | 0 | 0 | 0 |  | 0 | > 10
O=C(CNC(=O)c1ccc(Cl)cc1)NO [benurestat] | > 10 | > 10 |  | > 10 | 96.8 | 104 | 97.5 | 104 | 95.1 | 110 | 108 | 104 | 101 | 95.8 | 107 | 104 | 103 | 103 | 99.3 |  |  |  |  |  | 98.5 | 98.5 | 97.4 | 98.5 | 98.1 | 0 | 0 | 0 |  | 0 | > 10
C[n+]1ccc(C(=O)NCc2ccccc2)cc1 [enisamium-iodide] | > 10 | > 10 |  | > 10 | 104 | 103 | 98.9 | 103 | 103 | 88.7 | 96.3 | 99.7 | 79.7 | 81.7 | 96.5 | 100 | 91 | 108 | 102 |  |  |  |  |  | 98.8 | 103 | 87.7 | 94.5 | 99.1 | 0 | 2.8 | 0 |  | 0 | > 10
CC(C)C[C@H](NC(=O)CNC(=O)[C@H](Cc1ccc(O)cc1)NC(=O)[C@H](CO)NC(=O)[C@H](Cc1c[nH]c2ccccc12)NC(=O)[C@H](Cc1cnc[nH]1)NC(=O)[C@@H]1CCC(=O)N1)C(=O)N[C@@H](CCCNC(=N)N)C(=O)N1CCC[C@H]1C(=O)NCC(N)=O [gonadorelin] | > 10 | > 10 |  | > 10 | 97.4 | 100 | 98.4 | 98 | 97.7 | 108 | 86.8 | 102 | 101 | 96.2 | 94.7 | 98.8 | 92.2 | 86.9 | 97.5 |  |  |  |  |  | 106 | 96 | 100 | 99.7 | 100 | 0 | 0 | 0 |  | 0 | > 10
CCCCCCCCCCCCCCCCO [1-hexadecanol] | > 10 | > 10 | > 10 | > 10 | 97.8 | 100 | 97 | 97.3 | 92.7 |  |  |  |  |  | 94 | 95.5 | 102 | 95.5 | 97.3 | 99.7 | 97.3 | 96 | 95.9 | 102 | 107 | 97.4 | 87.3 | 96.6 | 95.1 | 0 |  | 0 | 0 | 0 | 
C[C@H](N)C(=O)O [L-alanine] | > 10 | > 10 | > 10 | > 10 | 94.5 | 102 | 104 | 105 | 96.3 |  |  |  |  |  | 102 | 94.3 | 99.6 | 106 | 84.2 | 104 | 103 | 106 | 98.9 | 104 | 102 | 96.6 | 99.4 | 106 | 105 | 0 |  | 0.2 | 0 | 0 | 
